These results are taken from US9227971B2, “Pyrazolo[1,5-a]pyrimidine compounds as mTOR inhibitors” (Merck Sharp & Dohme Corp., priority 2010, dated 2016).

The subject of assay [1] is phosphorylated 4E-BP1 Thr37/46 (p4E-BP1 Thr37/46), mTORC1 activity, PC3 cells. Kind of assay: mTOR target engagement assay, immunofluorescent cell-based, p4E-BP1 Thr37/46 readout (mTORC1 activity). Conditions: read-out: p4E-BP1 Thr37/46 IC50. In short, it runs like this:
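Seed PC3 cells overnight; treat with compound dilutions for ninety minutes at 37° C; fix with glyoxal and block; stain with anti-p4E-BP1 Thr37/46 overnight at 4° C, then fluorescent secondary; read fluorescence and fit IC50 against DMSO-only controls.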

The test system of assay [2] is phosphorylated AKT Ser473 (pAKT S473), mTORC2 activity, PC3 cells. Briefly: mTOR target engagement assay, immunofluorescent cell-based, pAKT S473 readout (mTORC2 activity). In short, it runs like this: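 After blocking, cells were stained overnight at 4 °C with anti-pAKT S473 antibody, then a fluorescent secondary; inhibition was read as reduced fluorescence intensity.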

The mark [3] stands for this setting: PC3 cells, compound treatment ninety minutes at 37° C.
[4] abbreviates: Homo sapiens, PC-3, PC3 cells, compound treatment ninety minutes at 37° C.
Where [5] appears, read: Homo sapiens, PC-3, Table 3-1, PC3 cells.
Where [6] appears, read: Homo sapiens, PC-3, Table 7-8, PC3 cells.

Read-outs that look alike come from different tables or passages of the source.

Regarding “(1R,3s,5S)-2-methoxyethyl 3-(6-acetyl-7-amino-3-(6-(1-methyl-1H-pyrazol-3-yl)pyridin-3-yl)pyrazolo[1,5-a]pyrimidin-5-yl)-8-azabicyclo[3.2.1]octane-8-carboxylate [Compound 1.1.109]”, the IC50 in assay [1] (setting [3]) and in assay [2] (setting [3]) was 1000 to 10000 nM throughout.

As to `COc1cc(F)cc2cc(-c3cnn4c(N)c(C(C)=O)c([C@@H]5C[C@H]6CC[C@@H](C5)N6C(=O)CO)nc34)cnc12` [Compound 1.1.183, 1-((1R,3r,5S)-3-(6-acetyl-7-amino-3-(6-fluoro-8-methoxyquinolin-3-yl)pyrazolo[1,5-a]pyrimidin-5-yl)-8-azabicyclo[3.2.1]octan-8-yl)-2-hydroxyethanone], the IC50 in assay [1] (setting [4]) was 100 to 1000 nM; in assay [2] (setting [4]), 1 to 100 nM.

As to `CC(=O)c1c([C@@H]2C[C@H]3CC[C@@H](C2)N3C(=O)CO)nc2c(-c3ccc(-c4cc(F)cc(F)c4)nc3)cnn2c1N` [Compound 1.1.101, 1-((1R,3r,5S)-3-(6-acetyl-7-amino-3-(6-(3,5-difluorophenyl)pyridin-3-yl)pyrazolo[1,5-a]pyrimidin-5-yl)-8-azabicyclo[3.2.1]octan-8-yl)-2-hydroxyethanone], the IC50 in assay [1] (setting [4]) and in assay [2] (setting [4]) was 100 to 1000 nM each time.

For the compound `CC(=O)c1c([C@@H]2C[C@H]3CC[C@@H](C2)N3C(N)=O)nc2c(-c3ccc(-c4ccc(F)cc4F)nc3)cnn2c1N` [Compound 1.1.169, (1R,3s,5S)-3-(6-acetyl-7-amino-3-(6-(2,4-difluorophenyl)pyridin-3-yl)pyrazolo[1,5-a]pyrimidin-5-yl)-8-azabicyclo[3.2.1]octane-8-carboxamide], the IC50 in assay [1] (setting [4]) and in assay [2] (setting [4]) was 1 to 100 nM throughout.

As to `CC(=O)Nc1nc(C(=O)N2[C@@H]3CC[C@H]2C[C@H](c2nc4c(-c5ccc(-c6ccccc6)nc5)cnn4c(N)c2C(C)=O)C3)n[nH]1` [Compound 1.1.142, N-(3-((1R,3s,5S)-3-(6-acetyl-7-amino-3-(6-phenylpyridin-3-yl)pyrazolo[1,5-a]pyrimidin-5-yl)-8-azabicyclo[3.2.1]octane-8-carbonyl)-1H-1,2,4-triazol-5-yl)acetamide], the IC50 in assay [1] (setting [4]) and in assay [2] (setting [4]) was 100 to 1000 nM throughout.

In the case of `CCc1c([C@@H]2C[C@H]3CC[C@@H](C2)N3C(=O)c2nc(C)n[nH]2)nc2c(-c3ccc(-c4ccccc4)nc3)cnn2c1N` [Compound 5.9, ((1R,3s,5S)-3-(7-amino-6-ethyl-3-(6-phenylpyridin-3-yl)pyrazolo[1,5-a]pyrimidin-5-yl)-8-azabicyclo[3.2.1]octan-8-yl)(3-methyl-1H-1,2,4-triazol-5-yl)methanone], the IC50 in assay [1] (setting [4]) and in assay [2] (setting [4]) was 1 to 100 nM each time.

On to `CC(=O)c1c([C@@H]2C[C@H]3CC[C@@H](C2)N3C(=O)c2nnc[nH]2)nc2c(-c3cnc4c(c3)CCCC4O)cnn2c1N` (stereo partly drawn) [Compound 7.59, 1-(5-((1R,3s,5S)-8-(4H-1,2,4-triazole-3-carbonyl)-8-azabicyclo[3.2.1]octan-3-yl)-7-amino-3-(8-hydroxy-5,6,7,8-tetrahydroquinolin-3-yl)pyrazolo[1,5-a]pyrimidin-6-yl)ethanone], for which the IC50 in assay [1] (PC3 cells) lay within 1 to 100 nM; in assay [2] (PC3 cells), 100 to 1000 nM.

As to `CC(=O)c1c([C@@H]2C[C@H]3CC[C@@H](C2)N3C(=O)c2nnc[nH]2)nc2c(-c3ccc(-c4ccncc4)nc3)cnn2c1N` [Compound 1.1.76, 1-(3-(2,4′-bipyridin-5-yl)-5-((1R,3s,5S)-8-(4H-1,2,4-triazole-3-carbonyl)-8-azabicyclo[3.2.1]octan-3-yl)-7-aminopyrazolo[1,5-a]pyrimidin-6-yl)ethanone], the IC50 in assay [1] (setting [4]) and in assay [2] (setting [4]) was 100 to 1000 nM in each case.

With `CC(=O)c1c([C@@H]2C[C@H]3CC[C@@H](C2)N3C(=O)c2nnc[nH]2)nc2c(-c3ccc(-c4ccn(CF)n4)nc3)cnn2c1N` [Compound 1.1.86, 1-(5-((1R,3s,5S)-8-(4H-1,2,4-triazole-3-carbonyl)-8-azabicyclo[3.2.1]octan-3-yl)-7-amino-3-(6-(1-(fluoromethyl)-1H-pyrazol-3-yl)pyridin-3-yl)pyrazolo[1,5-a]pyrimidin-6-yl)ethanone], the IC50 in assay [1] (setting [4]) and in assay [2] (setting [4]) was 1 to 100 nM in each case.

Turning to `CC(=O)c1c([C@H]2CC3CC[C@H](C2)N3C(=O)c2nnc[nH]2)nc2c(-c3cnc4c(c3)OCCC4O)cnn2c1N` (stereo partly drawn) [Compound 7.63, 1-(5-((1R,3s,5S)-8-(4H-1,2,4-triazole-3-carbonyl)-8-azabicyclo[3.2.1]octan-3-yl)-7-amino-3-(4-hydroxy-3,4-dihydro-2H-pyrano[3,2-b]pyridin-7-yl)pyrazolo[1,5-a]pyrimidin-6-yl)ethanone], the IC50 in assay [1] (Homo sapiens, PC-3, PC3 cells) lay in the range of 1 to 100 nM; in assay [2] (Homo sapiens, PC-3, PC3 cells) it was 100 to 1000 nM.

Take `COc1ccc(-c2ccc(-c3cnn4c(N)c(C(C)=O)c([C@H]5C[C@H]6CC[C@@H](C5)N6C(=O)c5nnc[nH]5)nc34)cn2)cc1F` [Compound 1.1.54, 1-(5-((1R,3r,5S)-8-(4H-1,2,4-triazole-3-carbonyl)-8-azabicyclo[3.2.1]octan-3-yl)-7-amino-3-(6-(3-fluoro-4-methoxyphenyl)pyridin-3-yl)pyrazolo[1,5-a]pyrimidin-6-yl)ethanone]: the IC50 in assay [1] (setting [4]) and in assay [2] (setting [4]) was 100 to 1000 nM in each case.

`CC(=O)c1c(C2CC3CCCC(C2)N3C(=O)c2nc[nH]n2)nc2c(-c3ccc(-c4ccccc4)nc3)cnn2c1N` (centres unmarked) [Compound 8.33, 1-(5-(9-(1H-1,2,4-triazole-3-carbonyl)-9-azabicyclo[3.3.1]nonan-3-yl)-7-amino-3-(6-phenylpyridin-3-yl)pyrazolo[1,5-a]pyrimidin-6-yl)ethanone]: the IC50 fell in the range of 100 to 1000 nM in assay [1] (Homo sapiens, PC-3, PC3 cells) and 100 to 1000 nM in assay [2] (Homo sapiens, PC-3, PC3 cells).

As to `Cn1ccc(-c2ccc(-c3cnn4c(N)c(C5CC5)c([C@@H]5C[C@H]6CC[C@@H](C5)N6C(=O)CO)nc34)cn2)n1` [Compound 4.18, 1-((1R,3s,5S)-3-(7-amino-6-cyclopropyl-3-(6-(1-methyl-1H-pyrazol-3-yl)pyridin-3-yl)pyrazolo[1,5-a]pyrimidin-5-yl)-8-azabicyclo[3.2.1]octan-8-yl)-2-hydroxyethanone], the IC50 in assay [1] (setting [4]) and in assay [2] (setting [4]) was 1 to 100 nM throughout.

Turning to `CCN/C(=N\CCCN(C)C)n1ncc(C(=O)N2[C@@H]3CC[C@H]2C[C@H](c2nc4c(-c5ccc(-c6ccccc6F)nc5)cnn4c(N)c2S(C)(=O)=O)C3)n1` [Compound 8.46, (E)-4-((1R,3s,5S)-3-(7-amino-3-(6-(2-fluorophenyl)pyridin-3-yl)-6-(methylsulfonyl)pyrazolo[1,5-a]pyrimidin-5-yl)-8-azabicyclo[3.2.1]octane-8-carbonyl)-N′-(3-(dimethylamino)propyl)-N-ethyl-2H-1,2,3-triazole-2-carboximidamide], the IC50 fell in the range of 100 to 1000 nM in assay [1] (Homo sapiens, PC-3, PC3 cells) and 1 to 100 nM in assay [2] (Homo sapiens, PC-3, PC3 cells).

Turning to `COc1ccc(-c2ccc(-c3cnn4c(N)c(S(C)(=O)=O)c([C@@H]5C[C@H]6CC[C@@H](C5)N6C(=O)c5nnc[nH]5)nc34)cn2)c(F)c1F` [Compound 3.54, ((1R,3s,5S)-3-(7-amino-3-(6-(2,3-difluoro-4-methoxyphenyl)pyridin-3-yl)-6-(methylsulfonyl)pyrazolo[1,5-a]pyrimidin-5-yl)-8-azabicyclo[3.2.1]octan-8-yl)(4H-1,2,4-triazol-3-yl)methanone], the IC50 in assay [1] (setting [5]) and in assay [2] (setting [5]) was 1 to 100 nM throughout.

Turning to `COc1ccc(-c2ccc(-c3cnn4c(N)c(S(C)(=O)=O)c([C@@H]5C[C@H]6CC[C@@H](C5)N6C(=O)c5nnc[nH]5)nc34)cn2)cc1C#N` [Compound 3.92, 5-(5-(5-((1R,3s,5S)-8-(4H-1,2,4-triazole-3-carbonyl)-8-azabicyclo[3.2.1]octan-3-yl)-7-amino-6-(methylsulfonyl)pyrazolo[1,5-a]pyrimidin-3-yl)pyridin-2-yl)-2-methoxybenzonitrile], the IC50 in assay [1] (setting [5]) and in assay [2] (setting [5]) was 100 to 1000 nM throughout.

For `CS(=O)(=O)c1c([C@@H]2C[C@H]3CC[C@@H](C2)N3C(=O)c2nnc[nH]2)nc2c(-c3ccc(C4(O)CCC4)nc3)cnn2c1N` [Compound 7.41, ((1R,3s,5S)-3-(7-amino-3-(6-(1-hydroxycyclobutyl)pyridin-3-yl)-6-(methylsulfonyl)pyrazolo [1,5-a]pyrimidin-5-yl)-8-azabicyclo[3.2.1]octan-8-yl)(4H-1,2,4-triazol-3-yl)methanone], the IC50 in assay [1] (setting [6]) and in assay [2] (setting [6]) was 1 to 100 nM throughout.

For the compound `CC(=O)c1c([C@@H]2C[C@H]3CC[C@@H](C2)N3C(=O)CO)nc2c(-c3ccc(-c4nn(C)cc4F)nc3)cnn2c1N` [Compound 1.1.94, 1-((1R,3s,5S)-3-(6-acetyl-7-amino-3-(6-(4-fluoro-1-methyl-1H-pyrazol-3-yl)pyridin-3-yl)pyrazolo[1,5-a]pyrimidin-5-yl)-8-azabicyclo[3.2.1]octan-8-yl)-2-hydroxyethanone], the IC50 in assay [1] (setting [4]) and in assay [2] (setting [4]) was 100 to 1000 nM each time.

As to `CCC(=O)NNc1ccc(-c2cnn3c(N)c(C(C)=O)c([C@@H]4C[C@H]5CC[C@@H](C4)N5C(=O)CO)nc23)cn1` [Compound 8.52, N′-(5-(6-acetyl-7-amino-5-((1R,3s,5S)-8-(2-hydroxyacetyl)-8-azabicyclo[3.2.1]octan-3-yl)pyrazolo[1,5-a]pyrimidin-3-yl)pyridin-2-yl)propionohydrazide], the IC50 was more than 10000 nM in assay [1] (Homo sapiens, PC-3, PC3 cells) and 1000 to 10000 nM in assay [2] (Homo sapiens, PC-3, PC3 cells).
